Measured values taken from patent US20020025307A1, “Bone sialoprotein based toxic gene therapy for the treatment of calcified tumors and tissues” (priority 1998, published 2002).

Key:
[1] = Body weight of experimental animals in the PC-3 tumor study; format: in vivo, athymic nude (nu/nu) mice; details: nude mice bearing PC3 tumors; intratumoral Ad-BSP-TK; GCV 40 mg/kg i.p.
From the text: FIG. 10 represents an in vivo experiment performed with 16 animals. Briefly, congenitally athymic nude (nu/nu) mice (Harlan Co., Houston, Tex.) 5 to 6 weeks of age, were inoculated s.c. with 2 million PC3 prostate cancer cells. When the tumor became palpable (4-5 mm in diameter), approximately 10 days after cell injection, the animals were randomly assigned to four experimental groups: group: 1, control group with no treatment; 2, intratumoral PBS on days 10, 17, 24 and 30; 3, Ad-BSP-TK only; and 4, Ad-BSP-TK plus GCV given on days 10-40. For Ad-BSP-TK injections, a microliter syringe fitted with a 28 gauge needle was used to deliver 75 μl of Ad-BSP-TK (1×10^9 plaque-forming units). The Ad-BSP-TK was injected intratumorally along both the long and short axes of the tumor; one injection parallel to the long axis, and one perpendicular to the axis. The needle point was then rotated within the tumor to maximize the area of Ad delivery. Tumor volume was calculated by the following formula: volume (a rotational ellipsoid)-M1xM2^2×0.5236 (M1, long axis; M2, short axis; Ko. S-C., Gotoh, A., Thalmann, G. N., Zhou, H. E., Johnston, D. A, Zhang, W. W., Kao, C., and Chung, L. W. K. Molecular therapy with recombinant p53 adenovirus in an androgen independent, metastatic human prostate cancer model. Hum. Gene Ther., 7:1683-1691, 1996). […]

[2] = tested on: BSP promoter; assay: BSP promoter-driven luciferase reporter activity in transfected cells; format: cell-based, human; details: mineralization conditions versus T media, 2186 base pair construct
Experimental: Cells ([…]) were exposed to a BSP promoter-luciferase vector (2.5 ug) with liposome mediated transfection for 4-6 hours, then allowed to grow approximately 2 days at which time cell lysates were obtained and assayed for relative luciferase activity (RLU). All values were standardized with cotransfection of CMV-betagalactosidase reporter plasmid (0.5 ug).

Compound | effect on body weight [1] | BSP promoter expression as RLU ([2]; C4-2B4) | BSP promoter expression as RLU ([2]; Du-145) | BSP promoter expression as RLU ([2]; PC-3)
Nc1nc(O)c2ncn(COC(CO)CO)c2n1 [GCV, Gancyclovir] | did not adversely affect the body weight |  |  | 
O=C1O[C@H]([C@@H](O)CO)C(O)=C1O [L-ascorbic acid] |  | hightened response | hightened response | hightened response
